Assay results published in the OligoGym collection.
Several values for one entry are separate records, joined by “and”; a condition that tells them apart may be missing. Equal values may be shown once. After the bases stand the sugars from the 5' end (letter, count) and the backbone: PS all phosphorothioate, else s phosphorothioate and o phosphodiester by linkage. Methylation of C is not given here. e = 2'-O-(2-methoxyethyl) (MOE); k = constrained ethyl (cEt); d = 2'-deoxy (DNA)

Target: IRF4
Conditions: ASO

| Sequence | target mRNA inhibition (SK-MEL-28, 4 µM) | other results |
| --- | --- | --- |
| TCCTATGCTGAACCCC (sugars k3 d10 k3, PS) | 36% |  |
| TCCTATTATAGAGCAT (sugars k3 d10 k3, PS) |  | target mRNA inhibition (MM.1R, 1 µM): 3% |
| TCCTCAAAGTCATTGC (sugars k4 d8 k4, PS) | 10% |  |
| TCCTCCACTACCATAT (sugars k3 d10 k3, PS) |  | target mRNA inhibition (MM.1R, 1 µM): -13% |
| TCCTCTGGCCATTGTC (sugars k3 d10 k3, PS) | 41% |  |
| TCCTGTAACGCACCCG (sugars k3 d10 k3, PS) |  | target mRNA inhibition (MM.1R, 1 µM): -13% |
| TCGAGATCATAGTGCA (sugars k3 d10 k3, PS) |  | target mRNA inhibition (MM.1R, 1 µM): 29% |
| TCGCATAGAGCCCGTC (sugars k3 d10 k3, PS) | 57% |  |
| TCGCATCCAGACCCTT (sugars k3 d10 k3, PS) | 28% |  |
| TCGGAACTTTCCTTTA (sugars k3 d10 k3, PS) | 33% |  |
| TCGGAGCTGAGGGCAG (sugars k3 d10 k3, PS) | 18% |  |
| TCTAAAGTCCCATCGA (sugars k3 d10 k3, PS) | 31% |  |
| TCTAACAGATAACGAG (sugars k3 d10 k3, PS) |  | target mRNA inhibition (MM.1R, 1 µM): -3% |
| TCTAATAAATGTGCTC (sugars k3 d10 k3, PS) | 44% |  |
| TCTAATCCACAATCAG (sugars k3 d10 k3, PS) | 41% |  |
| TCTACAGAACACAAGA (sugars k3 d10 k3, PS) | -8% |  |
| TCTACCTACTCCATCA (sugars k3 d10 k3, PS) | 47% |  |
| TCTATAGTGTTCCAGG (sugars k2 d9 e3 k2, PS) |  | target mRNA inhibition (MM.1R, 1 µM): 50% |
| TCTATAGTGTTCCAGG (sugars kkdddddddddekeke, PS) |  | target mRNA inhibition (MM.1R, 0.074 µM): 5%; target mRNA inhibition (MM.1R, 0.222 µM): 17%; target mRNA inhibition (MM.1R, 0.666 µM): 37%; target mRNA inhibition (MM.1R, 1 µM): 56% and 50%; target mRNA inhibition (MM.1R, 2 µM): 68% |
| TCTCCCACACCAGCCC (sugars k4 d8 k4, PS) | 25% |  |
| TCTCCGCCTCGGCCGC (sugars k3 d10 k3, PS) | 41% |  |
| TCTGACAAGAACTGCT (sugars k3 d10 k3, PS) | 12% |  |
| TCTGAGACTACACCTA (sugars k3 d10 k3, PS) | 27% |  |
| TCTGAGAGCAAATTGA (sugars k3 d10 k3, PS) | 29% |  |
| TCTGAGATGTCCAGCT (sugars k3 d10 k3, PS) | 45% |  |
| TCTGAGGGTCTGGAAA (sugars k3 d10 k3, PS) | 9% |  |
| TCTGGATGAGCTTACA (sugars k3 d10 k3, PS) |  | target mRNA inhibition (MM.1R, 1 µM): 14% |

| Sequence | target mRNA inhibition (SK-MEL-28, 4 µM) | other results |
| --- | --- | --- |
| TCTTTAAAATATCGCC (sugars k3 d10 k3, PS) |  | target mRNA inhibition (MM.1R, 1 µM): -45% |
| TCTTTGGGATTCTATA (sugars k3 d10 k3, PS) | 60% |  |
| TGAACCCTTCATCAGA (sugars k3 d10 k3, PS) | 48% |  |
| TGAAGCAACACGGGAA (sugars k3 d10 k3, PS) | 60% |  |
| TGAAGTGCTGTGTGGG (sugars k3 d10 k3, PS) | 57% |  |
| TGACACAGGAGCCGCT (sugars k3 d10 k3, PS) |  | target mRNA inhibition (MM.1R, 1 µM): 15% |
| TGACTCCATGAGGTTT (sugars k3 d10 k3, PS) | 65% |  |
| TGAGGCATACAGTGTG (sugars k3 d10 k3, PS) |  | target mRNA inhibition (MM.1R, 1 µM): 18% |
| TGATAAGGCACTACTT (sugars k3 d10 k3, PS) | 35% |  |
| TGATAGCTGAGCTGAT (sugars k3 d10 k3, PS) | 37% |  |
| TGATGTATACCAACGA (sugars k3 d10 k3, PS) | 62% and 87% |  |
| TGATGTGATAGCTGAG (sugars k3 d10 k3, PS) |  | target mRNA inhibition (MM.1R, 1 µM): 59% |
| TGATGTGATAGCTGAG (sugars kkdddddddddkekek, PS) |  | target mRNA inhibition (MM.1R, 1 µM): -2% |
| TGCAAAACCAGTACAG (sugars k3 d10 k3, PS) | 28% |  |
| TGCAAGCCTCATTCAC (sugars k3 d10 k3, PS) | 42% |  |
| TGCACTCGCGCAAAGG (sugars k3 d10 k3, PS) | 28% |  |
| TGCATAACACGGTGTT (sugars k3 d10 k3, PS) | 38% |  |
| TGCATCTATAAGATGT (sugars k3 d10 k3, PS) | 32% |  |
| TGCCACAACTCTCGCC (sugars k3 d10 k3, PS) | 31% |  |
| TGCCGCTGTCGATCTG (sugars k3 d10 k3, PS) | 32% |  |
| TGCCTCTGTTAGGTGA (sugars k3 d10 k3, PS) | 34% |  |
| TGCGAATGTGCCTTGT (sugars k3 d10 k3, PS) | 43% |  |
| TGCTCACTAAGCTTGA (sugars k3 d10 k3, PS) |  | target mRNA inhibition (MM.1R, 1 µM): 12% |
| TGCTGAACCCCACAGG (sugars k3 d10 k3, PS) | 33% |  |
| TGCTTGAGGTTTTCCT (sugars kkkdddddddddkeke, PS) |  | target mRNA inhibition (MM.1R, 1 µM): 35% |
| TGGAAACCAGCCCTTG (sugars k3 d10 k3, PS) | 48% |  |
| TGGAAACGAGAACGCA (sugars k3 d10 k3, PS) |  | target mRNA inhibition (MM.1R, 1 µM): -7% |
